Experimental data taken from patent US20050118601A1, “Enhancer sequence of the 5-aminolevulinic acid synthase gene” (priority 2002, published 2005).
Like-named read-outs stand apart in the source and are kept apart here.

Tests used:
mouse CAR = target: T1, mouse CAR (Mus musculus, UniProt O35627); assay: Transactivation of 369 bp ADRES by mouse CAR in CV-1 cells (CAT reporter); format: cell-based
T1 construct: expressed in transfected cells; host or cells: CV-1 cells, pSG5 expression vector
T1 sequence (O35627 1-358): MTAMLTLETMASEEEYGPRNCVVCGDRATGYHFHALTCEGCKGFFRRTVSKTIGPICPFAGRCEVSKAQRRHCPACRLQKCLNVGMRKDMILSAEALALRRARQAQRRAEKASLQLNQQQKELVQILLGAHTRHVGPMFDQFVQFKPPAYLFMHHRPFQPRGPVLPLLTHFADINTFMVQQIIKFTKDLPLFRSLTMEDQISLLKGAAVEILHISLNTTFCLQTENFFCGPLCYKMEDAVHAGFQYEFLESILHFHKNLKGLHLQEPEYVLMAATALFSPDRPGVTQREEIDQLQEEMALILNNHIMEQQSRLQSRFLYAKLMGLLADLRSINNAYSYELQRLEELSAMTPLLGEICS
Procedure: (§1) To test the effects of the mutations on transcriptional activation, transactivations in CV-1 cells with mouse PXR and mouse CAR and their respective inducers PCN and TCPOBOP, were performed (FIG. 14). The inducible DNA constructs were subcloned into the CAT5 reporter vector and tested for their ability to be transactivated by nuclear receptor transcription factors in CV-1 cells. Mouse PXR (A) and mouse CAR (B) coding regions cloned into the pSG5 expression vector were cotransfected along with a vector expressing pSV β-galactosidase as control. Cells were then treated for 16 h with either drugs (A, PCN; B, TCPOBOP) or vehicle control and cell extracts were analyzed for CAT expression normalized against β-galactosidase levels. Experiments were repeated at least three times and error bars represent standard deviations.

[1] = tested on: chicken ALAS1 drug responsive enhancer sequence (ADRES) elements; assay: Luciferase reporter gene assay of chicken ALAS1 5'-flanking fragments / ADRES elements in transfected LMH cells; format: cell-based; details: for ADRES activation in reporter assays: LMH cells, 16 h, PIA 250 μM, glutethimide 500 μM, metyrapone 400 μM, dexamethasone 50 μM, RU-486 10 μM, rifampicin 100 μM, TCPOBOP 10 μM, compared with PB 600 μM
Procedure: The constructs were transfected together with a transfection-control construct expressing β-galactosidase into LMH cells. Cells were then treated with 600 μM PB for 16 h and luciferase assays were performed on the cell extracts. Relative luciferase levels are standardized against cells transfected with vector containing no insert and expressed as fold induction. Experiments were repeated at least three times and data from a representative experiment tested in triplicate are shown here. Error bars represent standard deviations;
Three major subclones were generated from the region upstream of the transcriptional start site, including a 3282 bp SmaI fragment and 5056 bp and 7973 bp EcoRI segments (FIG. 1A). The SmaI clone extends from −167 bp to −3449 bp, whereas the EcoRI subfragments span the regions from −2347 bp to −7402 bp and −7403 bp to −15376 bp, respectively. These subfragments were cloned into the pLucMCS modified luciferase vector containing an SV40 promoter as described in Materials and Methods. Drug inducibility was measured in transiently transfected LMH cells treated with 600 μM PB and compared with control values. […]
The modified enhancers were examined for response to 600 μM PB in luciferase reporter gene assays and the results are presented in FIG. 3.
Leghorn Male Hepatoma (LMH) cells were obtained from the American Type Culture Collection and cultivated in 10 cm dishes in Williams E medium supplemented with 10% FCS, 1% glutamine (2 mM) and 1% penicillin/streptomycin (50 IU/ml). Dishes coated with 0.1% gelatin were used for routine culture of LMH cells in order to facilitate proper seating of the cells onto the plastic plate surface.

mouse 369 bp DRES = assay: Luciferase reporter gene assay of mouse ALAS1 fragments / 369 bp DRES in LMH cells; format: cell-based; details: for induction of the 369 bp DRES, ranking of drugs: metyrapone 500 μM, glutethimide 500 μM, PIA 250 μM
Procedure: A 175 bp fragment (441 to 615) (Seq. Id. No. 3) was isolated by digesting the 2.6 kb fragment with SacI/XbaI. All fragments were subcloned in the pGL3LUCpro+MCS vector and the resulting constructs tested for inducibility in LMH reporter gene assay (FIG. 6). […] The 369 bp fragment was termed Drug responsive enhancer sequence DRES.
To compare the 369 bp DRES to other inducible fragments, a series of different drugs was used as inducers: clothrimazole (Clo, 10 μM), dexamethasone (Dex, 50 μM), glutethimide (GE, 500 μM), metyrapone (Met, 500 μM), phenobarbital (PB, 500 μM), PCN (10 μM), propylisopropylacetamide (PIA, 250 μM), rifampicin (Rif, 10 μM), RU486 (10 μM), TCPOBOP (10 μM).
Data shown is from two independent experiments.

ALAS1 mRNA = ALAS1 mRNA quantification (Taqman real-time PCR) in LMH cells; format: cell-based, chicken
Procedure: We next wanted to compare ADRES-mediated ALAS1 induction levels from reporter gene assays with stimulation of transcription in a physiological system. […] In addition, the common CYP3A inducers dexamethasone (50 μM), metyrapone (400 μM), and 10 μM mifepristone (RU-486) were employed for comparison. We were also interested in the effects of […] 5-pregnen-3β-ol-20-one-16α-carbonitrile (PCN) and rifampicin (100 μM) due to their species-specific effects on PXR activation and CYP3A induction. Messenger RNA was reverse transcribed and levels of ALAS1 cDNA were quantified using the Taqman real-time PCR quantification system as described in Materials and Methods. […] This value was chosen to represent 100% induction, against which all other values are compared.
LMH cells were plated onto 12-well plates, expanded to 70-80% surface density and incubated in serum-free media for 24 h. Cells were then exposed to either drug or vehicle and RNA was isolated with Trizol reagent (Gibco BRL) according to the manufacturer protocol. One μg of total RNA was reverse transcribed with the Moloney murine leukemia virus reverse transcriptase kit (Roche Molecular Biochemicals). PCR was performed using the Taqman PCR core reagent kit (PE Applied Biosystems) and transcript levels quantitated with an ABI Prism 7700 sequence detection system (PE Applied Biosystems). Relative transcript levels were determined using the relative quantitation method measuring the ΔΔCt. The following primers and probes were used in these reactions. […] Transcript levels were measured in separate tubes and GAPDH values were used for normalization of ALAS1 values.

mouse PXR = target: T2, mouse PXR (Mus musculus, UniProt O54915)
T2 sequence (O54915 1-431): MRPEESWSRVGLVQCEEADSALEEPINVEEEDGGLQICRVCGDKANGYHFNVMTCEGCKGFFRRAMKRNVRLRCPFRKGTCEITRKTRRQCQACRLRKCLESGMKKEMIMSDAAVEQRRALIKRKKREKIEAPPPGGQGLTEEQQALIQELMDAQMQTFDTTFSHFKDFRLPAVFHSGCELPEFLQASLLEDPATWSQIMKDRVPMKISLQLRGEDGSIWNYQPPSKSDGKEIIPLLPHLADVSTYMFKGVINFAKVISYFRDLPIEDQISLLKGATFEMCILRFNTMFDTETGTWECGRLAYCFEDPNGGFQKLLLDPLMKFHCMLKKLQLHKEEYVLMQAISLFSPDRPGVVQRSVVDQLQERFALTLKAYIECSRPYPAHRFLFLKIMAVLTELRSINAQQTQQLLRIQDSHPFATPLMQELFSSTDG
Procedure: as §1

For C[C@@]12CCC[C@H]1[C@@H]1CC[C@H]3C[C@@H](O)CC[C@]3(C)[C@H]1CC2 [androstanol], the “basal expression exceeding androstanol-treated levels, DR4-2/hs1 single mutant” value (mouse CAR) was 2.5 fold and the “basal expression exceeding androstanol-treated levels, DR4-2/hs2 single mutant” value (mouse CAR) was 1.9 fold.

With CCC1(c2ccccc2)CCC(=O)NC1=O (stereo not drawn) [glutethimide, Glutethimide] the “ADRES activation in reporter assays” value [1] was “in excess of levels obtained from PB treatment”, the “relative response of the 176 bp element” value ([1]; glutethimide 500 μM vs metyrapone 400 μM) was “slightly more affinity for glutethimide than metyrapone” and the “induction of the 369 bp DRES, ranking of drugs” value (mouse 369 bp DRES) was “strongest inducer”.

With CC#C[C@]1(O)CC[C@H]2[C@@H]3CCC4=CC(=O)CCC4=C3[C@@H](c3ccc(N(C)C)cc3)C[C@@]21C [RU-486, Mifepristone] the “ADRES activation in reporter assays” value [1] was “minor or no effects” and the “effect on ALAS1 mRNA levels” value (ALAS1 mRNA; LMH cells, 16 h, PB 600 μM, dexamethasone 50 μM, RU-486 10 μM, rifampicin 100 μM, TCPOBOP 10 μM) was “minor or no effects”.

In the case of CC(=O)[C@H]1[C@H](C#N)C[C@H]2[C@@H]3CC=C4C[C@@H](O)CC[C@]4(C)[C@H]3CC[C@@]21C [PCN, 5-pregnene-3β-ol-20-one-16α-carbonitrile], the “ADRES activation in reporter assays” value [1] is reported as “minor or no effects”, the “activation, DR4-1 double mutant” value (mouse PXR) is reported as 1.9 fold and the “activation, first DR4-2 single mutant (DR4-2/hs1)” value (mouse PXR) is reported as 5.8 fold. The “activation, second DR4-2 single mutant (DR4-2/hs2)” value (mouse PXR) was 5.3 fold, the “drug response, both NR binding sites of 369 bp element altered” value (mouse PXR) was “elimination of PXR-mediated drug response” and the “induction, 369 bp wild type” value (mouse PXR) was 5.6 fold. For the same compound, the “induction, DR4-2 double mutant” value (mouse PXR) was 2.5 fold, the “induction, first DR4-1 single mutant (DR4-1/hs1)” value (mouse PXR) was 2.7 fold and the “induction, second DR4-1 single mutant (DR4-1/hs2)” value (mouse PXR) was 2.0 fold. For the same compound, the “effect on ALAS1 mRNA levels” value (ALAS1 mRNA) was “minor or no effects”.

With CC(C)(C(=O)c1cccnc1)c1cccnc1 [metyrapone, 2-methyl-1,2-di-3-pyridyl-propadone] the “ADRES activation in reporter assays” value [1] was “in excess of levels obtained from PB treatment”, the “relative response of the 167 bp element” value ([1]; metyrapone 400 μM vs glutethimide 500 μM) was “stronger response to metyrapone than glutethimide” and the “induction of mouse 175, 280, 321, 328 and 369 bp fragments” value (mouse 369 bp DRES; Metyrapone 500 μM) was “enhanced induction”. For the same compound, the “induction of the 369 bp DRES, ranking of drugs” value (mouse 369 bp DRES) was “strongest inducer”.
